This passage reports Activity results from ChEMBL document CHEMBL4665724, “Structure-activity relationship analysis of dammarane-type natural products as muscle-type creatine kinase activators” (Bioorg Med Chem Lett, 2020).

Experiment [1] addresses Creatine kinase M-type (Oryctolagus cuniculus) (UniProt P00563). Description: Activation of rabbit CK-MM assessed as increase in enzyme activity at 40 uM relative to control.
Experiment [2] has the same target. Kind of experiment: Binding affinity to rabbit CK-MM at 20 uM.
Experiment [3] concerns the target Creatine kinase M-type (Homo sapiens) (UniProt P06732). Description: Activation of human CK-MM assessed as increase in enzyme activity at 5 uM relative to control.
Experiment [4] shares this target. Kind of experiment: Activation of human CK-MM assessed as increase in enzyme activity at 80 uM relative to control.
The target is the same in experiment [5]. Kind of experiment: Binding affinity to recombinant human His-tagged CK-MM at 20 uM by Biolayer Interferometry analysis. For orientation: In BLI a coated tip is dipped into the sample, and binding shifts an interference pattern.
The target is the same in experiment [6]. Description: Activation of human CK-MM assessed as increase in enzyme activity at 40 uM relative to control.
Experiment [7] shares this target. Description: Activation of human CK-MM assessed as increase in enzyme activity at 20 uM relative to control.
Experiment [8] deals with Creatine kinase M-type (Oryctolagus cuniculus) (UniProt P00563). Kind of experiment: Activation of rabbit CK-MM assessed as increase in enzyme activity at 20 uM relative to control.
Chain of Creatine kinase M-type (Oryctolagus cuniculus) (P00563 whole entry): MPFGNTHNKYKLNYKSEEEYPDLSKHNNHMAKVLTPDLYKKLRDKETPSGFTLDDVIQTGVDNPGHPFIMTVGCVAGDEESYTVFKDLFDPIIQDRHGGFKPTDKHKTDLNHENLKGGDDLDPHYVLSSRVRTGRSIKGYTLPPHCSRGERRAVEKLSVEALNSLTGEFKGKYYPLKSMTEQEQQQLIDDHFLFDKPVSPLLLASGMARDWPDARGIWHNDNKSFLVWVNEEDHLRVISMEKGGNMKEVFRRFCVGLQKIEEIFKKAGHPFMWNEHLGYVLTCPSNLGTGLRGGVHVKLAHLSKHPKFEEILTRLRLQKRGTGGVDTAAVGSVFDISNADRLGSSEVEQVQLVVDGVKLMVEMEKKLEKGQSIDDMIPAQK
Experiment [9] shares this target. Description: Activation of rabbit CK-MM assessed as increase in enzyme activity at 10 uM relative to control.
For experiment [10], the target named is Creatine kinase M-type (Homo sapiens) (UniProt P06732). Kind of experiment: Activation of human CK-MM assessed as increase in enzyme activity at 10 uM relative to control.
Chain of Creatine kinase M-type (Homo sapiens) (P06732 whole entry): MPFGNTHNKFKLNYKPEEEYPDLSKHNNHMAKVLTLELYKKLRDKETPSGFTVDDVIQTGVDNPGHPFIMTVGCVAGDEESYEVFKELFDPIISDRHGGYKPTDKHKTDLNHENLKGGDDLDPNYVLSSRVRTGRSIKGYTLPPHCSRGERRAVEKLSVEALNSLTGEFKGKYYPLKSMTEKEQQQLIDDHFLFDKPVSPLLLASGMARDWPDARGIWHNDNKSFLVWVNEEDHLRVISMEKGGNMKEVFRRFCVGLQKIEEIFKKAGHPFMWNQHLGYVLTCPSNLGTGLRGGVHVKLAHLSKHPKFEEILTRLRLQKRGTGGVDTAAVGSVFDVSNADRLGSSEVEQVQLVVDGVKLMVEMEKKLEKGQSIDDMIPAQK
Experiment [11] shares this target. Description: Activation of human CK-MM assessed as increase in enzyme activity at 5 to 80 uM. As to conditions: dose microM 5-80.
Experiment [12] deals with Creatine kinase M-type (Oryctolagus cuniculus) (UniProt P00563). Kind of experiment: Activation of rabbit CK-MM assessed as increase in enzyme activity at 80 uM relative to control.
Experiment [13] shares this target. Kind of experiment: Activation of rabbit CK-MM assessed as increase in enzyme activity at 5 to 80 uM. As to conditions: dose microM 5-80.

The source made the active and inactive calls. No cut-off for these calls is given here.

Take `CC(C)=CCC[C@](C)(O)[C@H]1CC[C@]2(C)[C@@H]1[C@H](O)C[C@@H]1[C@@]3(C)CC[C@H](O)C(C)(C)[C@@H]3CC[C@]12C`: the Activity in experiment [1] was 4.2%; in [3] it was 29.6%; in experiment [4] (filed as activator) it was 53.2%; in experiment [6] (filed as activator), 54.3%; in experiment [7], 39.2%; in experiment [8], 4.3%. In addition, the Activity in [9] is 9.3%; in [10] it was 35.4%; in [11] (filed as activator), “Dose-dependent effect”. Also, the outcome in experiment [2] (filed as activator) and in experiment [5] (filed as activator) was Active.

Turning to `CC1(C)CCC[C@](C)([C@H]2CC[C@]3(C)[C@@H]2[C@H](O)C[C@@H]2[C@@]4(C)CC[C@H](O)C(C)(C)[C@@H]4[C@H](O)C[C@]23C)O1`, the outcome in [5] and in [11] was inactive.

As for `CC(C)(O)CCC[C@](C)(O)[C@H]1CC[C@]2(C)[C@@H]1[C@H](O)C[C@@H]1[C@@]3(C)CC[C@H](O)C(C)(C)[C@@H]3CC[C@]12C`, the Activity in experiment [3] was 17.3%; in [4] it was 15.6%; in experiment [6], 7.5%; in experiment [10] it was 8.6%. Moreover, the outcome in [5] (filed as activator) was Active.

For `CC(C)(O)[C@H]1CC[C@@](C)([C@H]2CC[C@]3(C)[C@@H]2[C@H](O)C[C@@H]2[C@@]4(C)CC[C@H](O)C(C)(C)[C@@H]4CC[C@]23C)O1`, the result in [5] and in experiment [11] was inactive.

`CC(C)=C[C@H]1C[C@](C)(O)[C@@H]2[C@H]3CC[C@@H]4[C@@]5(C)CC[C@H](O)C(C)(C)[C@@H]5CC[C@@]4(C)[C@@]34CO[C@@]2(C4)O1`: the Activity in experiment [3] amounted to 16.9%; in [6] it was 5.7%; in [10] it was 11.9%. Besides, the outcome in [5] was inactive.

Regarding `CC(C)=CCC[C@](C)(O)[C@H]1CC[C@]2(C)[C@@H]1[C@H](O)C[C@@H]1[C@@]3(C)CC[C@H](O)C(C)(C)[C@@H]3[C@@H](O)C[C@]12C`, the Activity in experiment [1] worked out at 3.4%; in experiment [3], 19.1%; in experiment [4] it was 13.6%; in [6], 19.7%; in [7] it was 32.2%; in experiment [8], 4.4%. Besides, the values for the Activity in experiment [12] and in experiment [10] were 2.1% and 20.6%, respectively. Further, the outcome in [2] (filed as activator) and in [5] (filed as activator) was Active.

Take `CC1(C)[C@@H](O)CC[C@]2(C)[C@H]3C[C@@H](O)[C@@H]4[C@@H]([C@@](C)(O)CCC(=O)O)CC[C@@]4(C)[C@]3(C)CC[C@@H]12`: the Activity in experiment [3] was 37.6%; in [4] (filed as activator), 52.1%; in [6] (filed as activator) it was 49.8%; in experiment [7] (filed as activator), 49.7%; in experiment [10], 37.4%; in [11] (filed as activator) it was “Dose-dependent effect”. In addition, in [5] (filed as activator), the result was Active.

Consider `CC1(C)CCC[C@](C)([C@H]2CC[C@]3(C)[C@@H]2[C@H](O)C[C@@H]2[C@@]4(C)CC[C@H](O)C(C)(C)[C@@H]4CC[C@]23C)O1`, for which the values for the Activity in experiment [4], in [6] and in experiment [7] were 15.4%, 14.4% and 7.1%, respectively. Also, the outcome in experiment [5] (filed as activator) was Active.

For the compound `CC(C)=CCC[C@](C)(O[C@@H]1O[C@H](CO)[C@@H](O)[C@H](O)[C@H]1O)[C@H]1CC[C@]2(C)[C@@H]1[C@H](O)C[C@@H]1[C@@]3(C)CC[C@H](O[C@@H]4O[C@H](CO)[C@@H](O)[C@H](O)[C@H]4O[C@@H]4O[C@H](CO)[C@@H](O)[C@H](O)[C@H]4O)C(C)(C)[C@@H]3CC[C@]12C`, the outcome in [2] and in experiment [13] was inactive.

For `CC(C)=CCC[C@@](C)(O)[C@H]1CC[C@]2(C)[C@@H]1[C@H](O)C[C@@H]1[C@@]3(C)CC[C@H](O)C(C)(C)[C@@H]3CC[C@]12C`, the Activity in experiment [3] came to 12.6%; in experiment [4] it was 10.2%; in experiment [6], 14.3%; in experiment [7], 23.5%; in experiment [10] it was 14.7%. The outcome in experiment [5] (filed as activator) was Active.

For the compound `CC(C)=CCC[C@](C)(O[C@@H]1O[C@H](CO)[C@@H](O)[C@H](O)[C@H]1O)[C@H]1CC[C@]2(C)[C@@H]1[C@H](O)C[C@@H]1[C@@]3(C)CC[C@H](O)C(C)(C)[C@@H]3[C@@H](O[C@@H]3O[C@H](CO)[C@@H](O)[C@H](O)[C@H]3O)C[C@]12C`, the result in [2] and in experiment [13] was inactive.

On to `CC(C)=CCC[C@](C)(O)[C@H]1CC[C@]2(C)[C@@H]1[C@H](O)C[C@@H]1[C@@]3(C)CC[C@H](O[C@@H]4O[C@H](CO)[C@@H](O)[C@H](O)[C@H]4O)C(C)(C)[C@@H]3CC[C@]12C`, for which the Activity in [1] was found to be 3.5%; in experiment [8], 3.1%. The outcome in experiment [2] (filed as activator) was Active.
